Measurements published in EP0318767A2, “Esters of pharmacologically active carboxylic acids splittable under physiological conditions” (F. HOFFMANN-LA ROCHE AG, priority 1987, dated 1989).

Experiments:
[1] = test system: Escherichia coli 25922; experiment: Experimental septicaemia in mice, oral antimicrobial efficacy; assay type: in vivo; settings: Albino mice 16-20 g infected i.p. with Escherichia coli 25922, ester given orally in Tween 80 (4%) 1 and 3 h after infection, dose protecting 50% of animals, survival 4 days after infection, probit method; for ED50: read-out: ED₅₀ in mg/kg p.o.
Description: Die perorale antimikrobielle Wirksamkeit der erfindungsgemässen Ester von antibiotisch wirksamen Carbonsäuren kann beispielsweise im nachfolgend beschriebenen Tierversuch nachgewiesen werden:
(§1) Man verursacht eine experimentelle Septikämie in 16-20 g schweren Albinomäusen, indem man den Versuchstieren eine Probe einer verdünnten Kultur des Testorganismus, Escherichia coli 25922, welche über Nacht gewachsen ist. intraperitoneal injiziert. Die verabreichte Probe wird dabei so bemessen, dass die verabreichte Dosis etwa 10-20 mal grösser ist, als die Dosis, welche benötigt wird um 50% der unbehandelten Versuchstiere innerhalb von 48 Stunden zu töten. Die Bakterien wurden als Suspension in Kulturbrühe injiziert. Sowohl für die Kontrolle als auch für die Behandlung wurden für jede getestete Dosis Gruppen zu je 5 Versuchstieren verwendet. Die erfindungsgemässen Ester wurden oral verabreicht, und zwar als Lösung in Tween 80 (4%), wobei die Konzentrationen so gewählt wurden, dass jedes Versuchstier 500 µl erhielt. Die Behandlungen erfolgten 1 und 3 Stunden nach der Infektion. Die ED₅₀ ist diejenige Dosis, welche 50% der Versuchstiere schützt, und wurde ausgehend von der Ueberlebensrate nach 4 Tagen nach der Infektion mittels der Probitmethode berechnet. In der nachfolgenden Tabelle sind die ED₅₀-Werte in mg/kg p.o. für Vertreter der erfindungsgemassen Stoffklasse angegeben. Die Tabelle enthält ausserdem Angaben über die akute Toxizität der erfindungsgemässen Ester bei einmaliger oraler Verabreichung an Mäusen. Tabelle

[2] = test system: Mäusen; experiment: Acute toxicity after a single oral administration to mice; assay type: in vivo
Description: as §1

| SMILES | ED50 [1] | DL₅₀ in mg/kg p.o. [2] | ED₅₀ in mg/kg p.o. [1] |
| --- | --- | --- | --- |
| CC/C=C(\COC(=O)C1=C(C)CS[C@@H]2[C@H](NC(=O)/C(=N\OC)c3csc(N)n3)C(=O)N12)C(=O)OCC(C)C [Verbindung B, (E)-2-(Isobutoxycarbonyl)-2-pentenyl (6R,7R)-7-[(Z)-2-(2-amino-4-thiazolyl)-2-(methoxyimino)acetamido]-3-methyl-8-oxo-5-thia-1-azabicyclo[4.2.0]oct-2-en-2-carboxylat] | 1.4 mg/kg | – | – |
| C/C=C(\COC(=O)C1=C(C)CS[C@@H]2[C@H](NC(=O)/C(=N\OC)c3csc(N)n3)C(=O)N12)C(=O)OCC [Verbindung C, (E)-2-(Aethoxycarbonyl)-2-butenyl (6R,7R)-7-[(Z)-2-(2-amino-4-thiazolyl)-2-(methoxyimino)acetamido]-3-methyl-8-oxo-5-thia-azabicyclo[4.2.0]oct-2-en-2-carboxylat] | – | >5000 mg/kg | 0,89 mg/kg |
| CC/C=C(\COC(=O)C1=C(CN=[N+]=[N-])CS[C@@H]2[C@H](NC(=O)/C(=N\OC)c3csc(N)n3)C(=O)N12)C(=O)OCC(C)C [Verbindung A, (E)-2-(Isobutoxycarbonyl)-2-pentenyl (6R,7R)-7-[(Z)-2-(2-amino-4-thiazolyl)-2-(methoxyimino)acetamido]-3-(azidomethyl)-8-oxo-5-thia-1-azabicyclo[4.2.0]oct-2-en-2-carboxylat] | 0.28 mg/kg | >5000 mg/kg | – |
